Experimental data as given in patent publication US8461206B2, “Use of at least one (dihydro)jasmonic acid derivative for treating dry skin” (L'Oreal, priority 2003, dated 2013).

Experiments:
Format in all cases: cell-based
[1] = test system: immortalized human sebocytes derived from the SZ95 line; assay: lipogenesis in immortalized human sebocytes in culture (Nile Red fluorescence); details: 10^-4 M, 0.1% DMSO, treatment for 48 hours, Nile Red 1 μg/ml, cells at confluence, p<0.001
Procedure: Methyl dihydrojasmonate (provided by BEDOUKIAN) was tested on a model of immortalized human sebocytes in culture, derived from the SZ95 line described in Zouboulis, C. C., Seltmann, H., Neitzel, H. & Orfanos, C. E., Establishment and Characterization of an Immortalized Human Sebaceous Gland Cell Line, J. Invest. Dermatol., 113, 1011-1020 (1999).
The test consisted in measuring the amount of lipids produced by the sebocytes of the line (at confluence), in the presence or absence of active agent diluted in DMSO, such that the final amount of DMSO in the culture medium was 0.1% and the amount of methyl dihydrojasmonate was 10^−4 M. After treatment for 48 hours, the adherent cells were treated with Nile Red (1 μg/ml). The lipid content was then quantified by measuring the fluorescence of the dye (two excitation/emission couples: 485-540 nm for the neutral lipids and 540-620 nm for the normeutral lipids). The results were given for the total lipids (combination of the two measurements).
The experiment was carried out in sextuplicate (assayed products and control) in a 96-well plate, and repeated four times.

[2] = test system: immortalized human sebocytes derived from the SZ95 line; assay: cell proliferation (MUH) assay; details: in parallel to the lipogenesis test
[3] = test system: immortalized human sebocytes derived from the SZ95 line; assay: cell viability (LDH) assay; details: in parallel to the lipogenesis test

## CCCCCC1C(=O)CCC1CC(=O)OC (stereo not drawn) [methyl dihydrojasmonate]
[1]
  increase in amount of neutral lipids synthesized by the sebocytes compared to the untreated control: 98%
[2]
  modification of cell proliferation (MUH): not related to a modification
[3]
  modification of cell viability (LDH): not related to a modification
